According to PMC6120666 (The EMBO Journal, 2018):

Key:
Assay in all cases: Drug affinity chromatography with c-ponatinib and LC-MS/MS (ponatinib interactome)
Assay type in all cases: binding
[1] = target: T1, proteins of U2OS cell lysate (Homo sapiens, UniProt Q9Y262)
T1 construct: Proteins enriched by c-ponatinib from U2OS cell lysate; endogenous in cells; host or cells: U2OS cell lysate
Experimental: (§1) Drug affinity chromatography
(§2) U2OS cells were grown until approximately 80% confluent before being pelleted and washed with PBS. Cell pellets were subsequently lysed in buffer A (50 mM Tris pH 7.5, 0.8% v/v NP-40, 5% v/v glycerol, 1.5 mM MgCl2, 100 mM NaCl, 25 mM NaF, 1 mM Na3VO4, 1 mM PMSF, 1mM DTT, 10 μg/mL TLCK, 1 μg/ml Leupeptin, 1 μg/ml Aprotinin, 1 μg/ml soy bean trypsin) and lysates prepared […]
(§3) concentration was determined and lysates stored at -80 °C.
(§4) Briefly, 100 μl of bead slurry (50% in isopropanol) were used for each pulldown experiment. Beads were washed with DMSO (3 × 500 μl), and resuspended in DMSO (50 μl), to which the amine (0.025 μmol) and triethylamine (0.75 μl) were added. The beads were incubated at room temperature for 16 h, and depletion of free amine from the supernatant was determined by LC-MS analysis. Ethanolamine (2.5 μl) was then added to block any unreacted NHS sites, and the beads incubated for a further 16 h. Derivatized beads were then washed with DMSO (3 × 500 μl), buffer A (3 × 1 ml), and incubated with cell lysates (2 mg of protein per pulldown, at 6 […]
(§5) Beads and treated lysates were incubated for 2 h at 4 °C before washing with buffer A (5 ml), Buffer B (50 mM HEPES pH 7.5, 100 mM NaCl, 500 μM EDTA, 2.5 ml), and eluted with formic acid (100 mM, 250 μl). Samples were neutralized with triethylammoniumbicarbonate (TEAB, 1M, 62.5 μl) and stored at -20 °C until preparation for proteomic analysis.
(§6) Samples were reduced with DTT (10 mM final concentration) for 30 min at room temperature, alkylated with iodoacetamide (55 mM final concentration) for 30 min at room temperature, diluted to 300 μl with TEAB, and incubated with trypsin (6 μl, 0.2 mg/ml) overnight at 37 °C. The digests were desalted using SEPAC lite columns (Waters), eluted with 69 % v/v MeCN, 0.1 % v/v FA in H2O (1 ml) and dried in vacuo. Dried peptides were stored at -20 °C before resuspension in 2 % v/v MeCN, 1 % v/v FA in H2O (20 μl) for LC-MS/MS analysis.
(§7) LC-MS/MS data acquisition
(§8) Mass spectrometry data was acquired at the Discovery Proteomics Facility (University of Oxford).
(§9) Digested samples were analyzed by nano-UPLC–MS/MS using a Dionex Ultimate 3000 nano UPLC with EASY spray column (75 μm × 500 mm, 2 μm particle size, Thermo Fisher Scientific) with a 60 min gradient of 0.1 % (v/v) formic acid in 5 % (v/v) DMSO to 0.1 % (v/v) formic acid with 35 % (v/v) acetonitrile in 5 % (v/v) DMSO at a flow rate of approximately 250 nl min−1 (600 bar per 40 °C column temperature). Mass spectrometry data was acquired either with an Orbitrap Q Exactive (Survey scans acquired at a resolution of 70,000 @ 200m/z and the 15 most abundant precursors were selected for HCD fragmentation), or an Orbitrap Q Exactive High Field (HF) instrument (survey scans were […]

[2] = target: T2, proteins of U2OS cell lysate (Homo sapiens, UniProt Q9Y6K9)
T2 construct: Proteins enriched by c-ponatinib from U2OS cell lysate; endogenous in cells; host or cells: U2OS cell lysate
Experimental: as §1, §2, §3, §4, §5, §6, §7, §8, §9

[3] = target: T3, proteins of U2OS cell lysate (Homo sapiens, UniProt P36957)
T3 construct: Proteins enriched by c-ponatinib from U2OS cell lysate; endogenous in cells; host or cells: U2OS cell lysate
Experimental: as §1, §2, §3, §4, §5, §6, §7, §8, §9

[4] = target: T4, proteins of U2OS cell lysate (Homo sapiens, UniProt P28074)
T4 construct: Proteins enriched by c-ponatinib from U2OS cell lysate; endogenous in cells; host or cells: U2OS cell lysate
Experimental: as §1, §2, §3, §4, §5, §6, §7, §8, §9

[5] = target: T5, proteins of U2OS cell lysate (Homo sapiens, UniProt Q13409)
T5 construct: Proteins enriched by c-ponatinib from U2OS cell lysate; endogenous in cells; host or cells: U2OS cell lysate
Experimental: as §1, §2, §3, §4, §5, §6, §7, §8, §9

[6] = target: T6, proteins of U2OS cell lysate (Homo sapiens, UniProt P06733)
T6 construct: Proteins enriched by c-ponatinib from U2OS cell lysate; endogenous in cells; host or cells: U2OS cell lysate
Experimental: as §1, §2, §3, §4, §5, §6, §7, §8, §9

[7] = target: T7, proteins of U2OS cell lysate (Homo sapiens, UniProt Q9Y230)
T7 construct: Proteins enriched by c-ponatinib from U2OS cell lysate; endogenous in cells; host or cells: U2OS cell lysate
Experimental: as §1, §2, §3, §4, §5, §6, §7, §8, §9

[8] = target: T8, proteins of U2OS cell lysate (Homo sapiens, UniProt P07900)
T8 construct: Proteins enriched by c-ponatinib from U2OS cell lysate; endogenous in cells; host or cells: U2OS cell lysate
Experimental: as §1, §2, §3, §4, §5, §6, §7, §8, §9

[9] = target: T9, proteins of U2OS cell lysate (Homo sapiens, UniProt Q9BUF5)
T9 construct: Proteins enriched by c-ponatinib from U2OS cell lysate; endogenous in cells; host or cells: U2OS cell lysate
Experimental: as §1, §2, §3, §4, §5, §6, §7, §8, §9

[10] = target: T10, proteins of U2OS cell lysate (Homo sapiens, UniProt P50613)
T10 construct: Proteins enriched by c-ponatinib from U2OS cell lysate; endogenous in cells; host or cells: U2OS cell lysate
Experimental: as §1, §2, §3, §4, §5, §6, §7, §8, §9

[11] = target: T11, proteins of U2OS cell lysate (Homo sapiens, UniProt Q9UBM7)
T11 construct: Proteins enriched by c-ponatinib from U2OS cell lysate; endogenous in cells; host or cells: U2OS cell lysate
Experimental: as §1, §2, §3, §4, §5, §6, §7, §8, §9

[12] = target: T12, proteins of U2OS cell lysate (Homo sapiens, UniProt Q01130)
T12 construct: Proteins enriched by c-ponatinib from U2OS cell lysate; endogenous in cells; host or cells: U2OS cell lysate
Experimental: as §1, §2, §3, §4, §5, §6, §7, §8, §9

[13] = target: T13, proteins of U2OS cell lysate (Homo sapiens, UniProt O95816)
T13 construct: Proteins enriched by c-ponatinib from U2OS cell lysate; endogenous in cells; host or cells: U2OS cell lysate
Experimental: as §1, §2, §3, §4, §5, §6, §7, §8, §9

[14] = target: T14, proteins of U2OS cell lysate (Homo sapiens, UniProt Q12874)
T14 construct: Proteins enriched by c-ponatinib from U2OS cell lysate; endogenous in cells; host or cells: U2OS cell lysate
Experimental: as §1, §2, §3, §4, §5, §6, §7, §8, §9

[15] = target: T15, proteins of U2OS cell lysate (Homo sapiens, UniProt O75533)
T15 construct: Proteins enriched by c-ponatinib from U2OS cell lysate; endogenous in cells; host or cells: U2OS cell lysate
Experimental: as §1, §2, §3, §4, §5, §6, §7, §8, §9

[16] = target: T16, proteins of U2OS cell lysate (Homo sapiens, UniProt P62195)
T16 construct: Proteins enriched by c-ponatinib from U2OS cell lysate; endogenous in cells; host or cells: U2OS cell lysate
Experimental: as §1, §2, §3, §4, §5, §6, §7, §8, §9

[17] = target: T17, proteins of U2OS cell lysate (Homo sapiens, UniProt Q16186)
T17 construct: Proteins enriched by c-ponatinib from U2OS cell lysate; endogenous in cells; host or cells: U2OS cell lysate
Experimental: as §1, §2, §3, §4, §5, §6, §7, §8, §9

[18] = target: T18, proteins of U2OS cell lysate (Homo sapiens, UniProt P17987)
T18 construct: Proteins enriched by c-ponatinib from U2OS cell lysate; endogenous in cells; host or cells: U2OS cell lysate
Experimental: as §1, §2, §3, §4, §5, §6, §7, §8, §9

[19] = target: T19, proteins of U2OS cell lysate (Homo sapiens, UniProt Q9BQE3)
T19 construct: Proteins enriched by c-ponatinib from U2OS cell lysate; endogenous in cells; host or cells: U2OS cell lysate
Experimental: as §1, §2, §3, §4, §5, §6, §7, §8, §9

T14 sequence (Q12874 whole entry): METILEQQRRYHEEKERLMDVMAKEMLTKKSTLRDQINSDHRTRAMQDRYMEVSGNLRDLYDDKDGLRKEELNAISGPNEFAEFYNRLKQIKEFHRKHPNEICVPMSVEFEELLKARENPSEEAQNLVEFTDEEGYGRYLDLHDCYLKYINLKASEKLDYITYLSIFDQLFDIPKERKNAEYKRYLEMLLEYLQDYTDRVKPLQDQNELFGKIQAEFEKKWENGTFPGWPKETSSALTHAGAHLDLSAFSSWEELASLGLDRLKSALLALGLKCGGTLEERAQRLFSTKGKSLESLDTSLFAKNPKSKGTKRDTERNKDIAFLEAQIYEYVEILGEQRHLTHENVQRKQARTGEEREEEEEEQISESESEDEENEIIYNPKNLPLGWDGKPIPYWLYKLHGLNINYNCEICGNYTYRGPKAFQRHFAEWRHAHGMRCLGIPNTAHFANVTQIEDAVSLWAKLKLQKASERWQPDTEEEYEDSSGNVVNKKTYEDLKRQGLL
T6 sequence (P06733 whole entry): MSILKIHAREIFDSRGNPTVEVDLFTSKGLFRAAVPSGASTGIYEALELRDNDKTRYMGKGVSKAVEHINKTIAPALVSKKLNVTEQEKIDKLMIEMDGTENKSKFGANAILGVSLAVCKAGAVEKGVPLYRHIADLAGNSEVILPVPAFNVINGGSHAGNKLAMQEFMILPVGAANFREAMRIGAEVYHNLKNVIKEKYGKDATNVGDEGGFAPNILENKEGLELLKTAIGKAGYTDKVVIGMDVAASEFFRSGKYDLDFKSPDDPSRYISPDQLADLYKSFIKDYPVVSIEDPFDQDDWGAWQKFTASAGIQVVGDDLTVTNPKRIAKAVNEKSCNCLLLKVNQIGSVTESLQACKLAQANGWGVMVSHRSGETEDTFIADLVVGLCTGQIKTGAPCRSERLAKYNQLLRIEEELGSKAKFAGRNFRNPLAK
T5 sequence (Q13409 whole entry): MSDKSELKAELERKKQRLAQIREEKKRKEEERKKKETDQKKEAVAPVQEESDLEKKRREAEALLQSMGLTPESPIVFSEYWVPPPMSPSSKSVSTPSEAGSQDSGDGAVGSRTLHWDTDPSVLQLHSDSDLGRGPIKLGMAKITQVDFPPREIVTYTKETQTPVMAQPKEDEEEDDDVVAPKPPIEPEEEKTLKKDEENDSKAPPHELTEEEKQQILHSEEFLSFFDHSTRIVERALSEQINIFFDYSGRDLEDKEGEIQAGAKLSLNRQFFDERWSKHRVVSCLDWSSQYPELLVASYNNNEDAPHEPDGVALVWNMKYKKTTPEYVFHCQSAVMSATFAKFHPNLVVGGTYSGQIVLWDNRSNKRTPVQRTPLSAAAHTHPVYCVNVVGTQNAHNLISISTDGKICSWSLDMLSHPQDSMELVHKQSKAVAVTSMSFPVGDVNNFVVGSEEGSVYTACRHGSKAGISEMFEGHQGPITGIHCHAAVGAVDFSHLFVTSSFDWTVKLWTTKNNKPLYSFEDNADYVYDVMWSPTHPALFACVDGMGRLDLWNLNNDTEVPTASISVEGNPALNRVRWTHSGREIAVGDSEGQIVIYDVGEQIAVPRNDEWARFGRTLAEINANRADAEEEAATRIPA
T12 sequence (Q01130 whole entry): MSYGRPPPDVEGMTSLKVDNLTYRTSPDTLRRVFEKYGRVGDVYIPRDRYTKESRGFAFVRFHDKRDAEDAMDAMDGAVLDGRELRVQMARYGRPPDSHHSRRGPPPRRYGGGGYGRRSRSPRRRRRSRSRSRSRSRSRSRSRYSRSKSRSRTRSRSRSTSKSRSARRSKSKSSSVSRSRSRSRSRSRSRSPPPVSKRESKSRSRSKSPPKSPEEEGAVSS
T4 sequence (P28074 60-263): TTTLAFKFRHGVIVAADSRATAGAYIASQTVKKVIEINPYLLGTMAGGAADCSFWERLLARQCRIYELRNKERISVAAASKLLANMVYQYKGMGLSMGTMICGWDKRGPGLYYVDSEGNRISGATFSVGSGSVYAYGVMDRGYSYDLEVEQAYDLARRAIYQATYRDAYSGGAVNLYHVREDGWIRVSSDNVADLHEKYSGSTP
T17 sequence (Q16186 whole entry): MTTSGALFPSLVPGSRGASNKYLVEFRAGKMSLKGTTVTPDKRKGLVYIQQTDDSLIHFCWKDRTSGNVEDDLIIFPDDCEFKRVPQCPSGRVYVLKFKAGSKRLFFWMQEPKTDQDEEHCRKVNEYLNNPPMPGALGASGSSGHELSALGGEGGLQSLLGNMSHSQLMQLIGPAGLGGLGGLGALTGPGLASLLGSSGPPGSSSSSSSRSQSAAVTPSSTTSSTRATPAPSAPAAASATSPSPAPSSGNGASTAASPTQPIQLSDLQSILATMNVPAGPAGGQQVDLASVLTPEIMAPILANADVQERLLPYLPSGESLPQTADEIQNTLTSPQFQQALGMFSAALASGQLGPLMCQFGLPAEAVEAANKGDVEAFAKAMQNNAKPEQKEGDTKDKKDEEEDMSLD
T13 sequence (O95816 whole entry): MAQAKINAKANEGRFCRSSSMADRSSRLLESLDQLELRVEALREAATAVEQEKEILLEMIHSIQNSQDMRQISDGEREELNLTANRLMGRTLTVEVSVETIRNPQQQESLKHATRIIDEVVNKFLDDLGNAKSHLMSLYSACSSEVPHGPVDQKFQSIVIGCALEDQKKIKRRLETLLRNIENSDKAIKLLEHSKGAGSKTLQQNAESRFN
T19 sequence (Q9BQE3 whole entry): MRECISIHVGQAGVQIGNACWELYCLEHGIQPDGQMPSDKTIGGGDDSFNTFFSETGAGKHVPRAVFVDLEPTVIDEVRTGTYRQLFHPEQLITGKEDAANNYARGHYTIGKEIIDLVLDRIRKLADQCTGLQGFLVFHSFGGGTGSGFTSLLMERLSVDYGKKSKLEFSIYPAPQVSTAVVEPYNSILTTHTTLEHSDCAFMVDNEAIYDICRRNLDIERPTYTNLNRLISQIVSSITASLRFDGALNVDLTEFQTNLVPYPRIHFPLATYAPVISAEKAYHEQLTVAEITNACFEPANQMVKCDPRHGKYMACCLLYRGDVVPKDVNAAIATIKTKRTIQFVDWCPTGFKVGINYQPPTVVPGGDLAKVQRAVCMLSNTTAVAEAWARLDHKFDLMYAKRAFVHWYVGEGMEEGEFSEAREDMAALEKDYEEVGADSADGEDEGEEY
T10 sequence (P50613 whole entry): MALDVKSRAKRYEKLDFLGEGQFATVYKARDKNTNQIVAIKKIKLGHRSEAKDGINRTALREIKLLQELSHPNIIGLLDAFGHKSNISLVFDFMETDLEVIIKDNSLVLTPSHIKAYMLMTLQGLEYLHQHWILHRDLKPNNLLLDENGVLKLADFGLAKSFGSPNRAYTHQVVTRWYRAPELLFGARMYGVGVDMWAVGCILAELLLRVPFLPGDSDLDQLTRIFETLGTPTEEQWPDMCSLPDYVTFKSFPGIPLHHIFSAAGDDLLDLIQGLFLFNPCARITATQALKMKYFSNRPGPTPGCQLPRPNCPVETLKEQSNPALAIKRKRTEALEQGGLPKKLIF
T11 sequence (Q9UBM7 whole entry): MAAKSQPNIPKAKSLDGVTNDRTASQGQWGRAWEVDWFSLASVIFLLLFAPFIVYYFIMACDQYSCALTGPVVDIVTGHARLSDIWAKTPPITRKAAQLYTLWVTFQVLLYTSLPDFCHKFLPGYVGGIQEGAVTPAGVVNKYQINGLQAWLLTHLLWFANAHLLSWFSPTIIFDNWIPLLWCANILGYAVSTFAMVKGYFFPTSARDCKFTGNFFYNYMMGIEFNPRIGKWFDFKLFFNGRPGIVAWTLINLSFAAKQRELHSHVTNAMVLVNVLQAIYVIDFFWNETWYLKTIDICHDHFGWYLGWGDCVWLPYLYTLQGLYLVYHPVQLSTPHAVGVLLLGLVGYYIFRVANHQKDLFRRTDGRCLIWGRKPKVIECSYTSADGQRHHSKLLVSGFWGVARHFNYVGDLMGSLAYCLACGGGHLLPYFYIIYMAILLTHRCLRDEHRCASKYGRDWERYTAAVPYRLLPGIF
T2 sequence (Q9Y6K9 whole entry): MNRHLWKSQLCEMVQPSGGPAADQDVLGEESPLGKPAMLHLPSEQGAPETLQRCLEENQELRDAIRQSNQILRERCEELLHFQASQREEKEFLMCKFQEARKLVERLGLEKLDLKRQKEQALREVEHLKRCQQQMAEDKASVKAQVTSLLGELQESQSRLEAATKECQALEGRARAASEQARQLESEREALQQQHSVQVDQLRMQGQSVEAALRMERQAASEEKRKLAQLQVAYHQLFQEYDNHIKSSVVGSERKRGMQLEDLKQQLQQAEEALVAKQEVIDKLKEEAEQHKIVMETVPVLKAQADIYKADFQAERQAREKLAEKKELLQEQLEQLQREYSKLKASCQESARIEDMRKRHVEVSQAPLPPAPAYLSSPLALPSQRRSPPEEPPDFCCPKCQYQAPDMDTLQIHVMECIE
T1 sequence (Q9Y262 whole entry): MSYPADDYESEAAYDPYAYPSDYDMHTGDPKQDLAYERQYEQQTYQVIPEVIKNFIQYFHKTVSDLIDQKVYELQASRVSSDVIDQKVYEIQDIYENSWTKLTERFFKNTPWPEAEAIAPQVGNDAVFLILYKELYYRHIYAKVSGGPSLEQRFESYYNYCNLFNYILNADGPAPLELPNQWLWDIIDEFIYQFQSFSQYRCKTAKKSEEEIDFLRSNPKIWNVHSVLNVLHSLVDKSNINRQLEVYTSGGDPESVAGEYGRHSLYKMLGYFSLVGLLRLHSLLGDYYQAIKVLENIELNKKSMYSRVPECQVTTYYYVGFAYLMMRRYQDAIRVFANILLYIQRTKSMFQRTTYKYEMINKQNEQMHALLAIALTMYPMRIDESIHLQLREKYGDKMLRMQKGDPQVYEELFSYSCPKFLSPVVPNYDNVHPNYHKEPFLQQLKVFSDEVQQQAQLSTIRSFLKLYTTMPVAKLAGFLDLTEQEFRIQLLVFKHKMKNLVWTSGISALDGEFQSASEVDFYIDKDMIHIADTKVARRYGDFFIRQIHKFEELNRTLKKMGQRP

SMILES: Cc1ccc(C(=O)Nc2ccc(CN3CCN(C)CC3)c(C(F)(F)F)c2)cc1C#Cc1cnc2cccnn12 [PON]
- Average LFQ PON_WT ([1]; EIF3L, Eukaryotic translation initiation factor 3 subunit L): 22.8981
- Average LFQ PON_WT ([2]; IKBKG, NF-kappa-B essential modulator): 21.7256
- Average LFQ PON_WT ([3]; DLST, Dihydrolipoyllysine-residue succinyltransferase component of 2-oxoglutarate dehydrogenase complex, mitochondrial): 21.6592
- Average LFQ PON_WT ([4]; PSMB5, Proteasome subunit beta type-5): 21.73
- Average LFQ PON_WT ([5]; DYNC1I2, Cytoplasmic dynein 1 intermediate chain 2): 22.2038
- Average LFQ PON_WT ([6]; ENO1, Alpha-enolase): 21.9992
- Average LFQ PON_WT ([7]; RUVBL2, RuvB-like 2): 22.2484
- Average LFQ PON_WT ([8]; HSP90AA1, Heat shock protein HSP 90-alpha): 21.9345
- Average LFQ PON_WT ([9]; TUBB6, Tubulin beta-6 chain): 22.6671
- Average LFQ PON_WT ([10]; CDK7, Cyclin-dependent kinase 7): 22.0619
- Average LFQ PON_WT ([11]; DHCR7, 7-dehydrocholesterol reductase): 21.6093
- Average LFQ PON_WT ([12]; SRSF2, Serine/arginine-rich splicing factor 2): 22.8743
- Average LFQ PON_WT ([13]; BAG2, BAG family molecular chaperone regulator 2): 22.6462
- Average LFQ PON_WT ([14]; SF3A3, Splicing factor 3A subunit 3): 21.5172
- Average LFQ PON_WT ([15]; SF3B1, Splicing factor 3B subunit 1): 22.352
- Average LFQ PON_WT ([16]; PSMC5, 26S protease regulatory subunit 8): 22.2388
- Average LFQ PON_WT ([17]; ADRM1, Proteasomal ubiquitin receptor ADRM1): 22.2159
- Average LFQ PON_WT ([18]; TCP1, T-complex protein 1 subunit alpha): 22.697
- Average LFQ PON_WT ([19]; TUBA1C, Tubulin alpha-1C chain): 21.711

SMILES: Cc1ccc(C(=O)Nc2ccc(CN3CCN(CCCN)CC3)c(C(F)(F)F)c2)cc1C#Cc1cnc2cccnn12 [c-ponatinib, reference compound]
- Average LFQ intensity ([1]; captured protein EIF3L, Rank 130): 22.8981
- Average LFQ intensity ([2]; captured protein IKBKG, Rank 212): 21.7256
- Average LFQ intensity ([3]; captured protein DLST, Rank 218): 21.6592
- Average LFQ intensity ([4]; captured protein PSMB5, Rank 211): 21.7301
- Average LFQ intensity ([5]; captured protein DYNC1I2, Rank 179): 22.2038
- Average LFQ intensity ([6]; captured protein ENO1, Rank 190): 21.9992
- Average LFQ intensity ([7]; captured protein RUVBL2, Rank 173): 22.2484
- Average LFQ intensity ([8]; captured protein HSP90AA1, Rank 195): 21.9345
- Average LFQ intensity ([9]; captured protein TUBB6, Rank 151): 22.6671
- Average LFQ intensity ([10]; captured protein CDK7, Rank 187): 22.0619
- Average LFQ intensity ([11]; captured protein DHCR7, Rank 220): 21.6093
- Average LFQ intensity ([12]; captured protein SRSF2, Rank 132): 22.8743
- Average LFQ intensity ([13]; captured protein BAG2, Rank 152): 22.6462
- Average LFQ intensity ([14]; captured protein SF3A3, Rank 228): 21.5172
- Average LFQ intensity ([15]; captured protein SF3B1, Rank 165): 22.352
- Average LFQ intensity ([16]; captured protein PSMC5, Rank 176): 22.2388
- Average LFQ intensity ([17]; captured protein ADRM1, Rank 178): 22.2159
- Average LFQ intensity ([18]; captured protein TCP1, Rank 149): 22.697
- Average LFQ intensity ([19]; captured protein TUBA1C, Rank 213): 21.711
